Measurements as given in PubChem BioAssay AID248 (DTP/NCI, 2004).
Several values for one entry are separate records, joined by “and”; a condition that tells them apart may be missing. Identical values can stand only once. Toxic doses and inconclusive results are not listed. Rule as the data show it: active = T/C of 150% or more; inactive = T/C below 125%.

System: L1210 leukemia ip in BDF1 mice, survival T/C
Test: NCI In Vivo Anticancer Drug Screen. Data for tumor model L1210 Leukemia (intraperitoneal) in B6D2F1 (BDF1) mice
Details: endpoint: mean survival time, higher = longer survival
Outline: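 Transplanted-tumor mice were given test agent; controls received vehicle only. Survival readings from the two groups were divided (treated over control).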

[1] = dose: 75.0 mg/kg/injection, schedule: Q01DX001 (ip), vehicle: carboxymethylcellulose (CMC)
[2] = dose: 100.0 mg/kg/injection, schedule: Q04DX003 (ip), vehicle: saline with Tween-80
[3] = dose: 200.0 mg/kg/injection, schedule: Q04DX003 (ip), vehicle: saline with Tween-80
[4] = dose: 400.0 mg/kg/injection, schedule: Q04DX003 (ip), vehicle: saline with Tween-80
[5] = dose: 100.0 mg/kg/injection, schedule: Q04DX003 (ip), vehicle: Klucel (hydroxypropylcellulose) (HPC)
[6] = dose: 200.0 mg/kg/injection, schedule: Q04DX003 (ip), vehicle: Klucel (hydroxypropylcellulose) (HPC)
[7] = dose: 50.0 mg/kg/injection, schedule: Q01DX009 (ip), vehicle: saline with Tween-80
[8] = dose: 100.0 mg/kg/injection, schedule: Q01DX009 (ip), vehicle: saline with Tween-80
[9] = dose: 6.25 mg/kg/injection, schedule: Q01DX009 (ip), vehicle: saline

Measured: T/C

CC(C)/C=N/NP(Br)(c1ccccc1)(c1ccccc1)c1ccccc1
inactive: [1] 93 % of control | dose: 150.0 mg/kg/injection, schedule: Q01DX001 (ip), vehicle: carboxymethylcellulose (CMC) 95 % of control | dose: 300.0 mg/kg/injection, schedule: Q01DX001 (ip), vehicle: carboxymethylcellulose (CMC) 102 % of control

Cc1nc2nccnc2[nH]1
inactive: dose: 100.0 mg/kg/injection, schedule: Q01DX009 (ip), vehicle: saline sonified 100 % of control | [2] 96 % of control | dose: 200.0 mg/kg/injection, schedule: Q01DX009 (ip), vehicle: saline sonified 92 % of control | [3] 96 % of control | dose: 400.0 mg/kg/injection, schedule: Q01DX009 (ip), vehicle: saline sonified 96 % of control | [4] 96 % of control

CCOC1=CC(=O)CCC1
inactive: dose: 50.0 mg/kg/injection, schedule: Q01DX009 (ip), vehicle: saline 98 % of control | dose: 100.0 mg/kg/injection, schedule: Q01DX009 (ip), vehicle: saline 94 % of control | dose: 100.0 mg/kg/injection, schedule: Q04DX003 (ip), vehicle: saline 98 % of control | dose: 200.0 mg/kg/injection, schedule: Q01DX009 (ip), vehicle: saline 100 % of control | dose: 200.0 mg/kg/injection, schedule: Q04DX003 (ip), vehicle: saline 110 % of control | dose: 400.0 mg/kg/injection, schedule: Q04DX003 (ip), vehicle: saline 101 % of control

CCC(C)C(C#N)(CCN(CC)CC)c1ccccc1 (centres undefined)
inactive: dose: 50.0 mg/kg/injection, schedule: Q01DX009 (ip), vehicle: Klucel (hydroxypropylcellulose) (HPC) 104 % of control | dose: 100.0 mg/kg/injection, schedule: Q01DX009 (ip), vehicle: Klucel (hydroxypropylcellulose) (HPC) 100 % of control | [5] 111 % of control | [6] 103 % of control

N=C(N=Nc1c(O)[nH]c2ccccc12)N[N+](=O)[O-]
inactive: dose: 6.25 mg/kg/injection, schedule: Q01DX009 (ip), vehicle: Klucel (hydroxypropylcellulose) (HPC) 95 % of control | dose: 12.5 mg/kg/injection, schedule: Q01DX009 (ip), vehicle: Klucel (hydroxypropylcellulose) (HPC) 101 % of control | dose: 12.5 mg/kg/injection, schedule: Q04DX003 (ip), vehicle: Klucel (hydroxypropylcellulose) (HPC) 100 % of control | dose: 25.0 mg/kg/injection, schedule: Q01DX009 (ip), vehicle: Klucel (hydroxypropylcellulose) (HPC) 91 % of control | dose: 25.0 mg/kg/injection, schedule: Q04DX003 (ip), vehicle: Klucel (hydroxypropylcellulose) (HPC) 102 % of control

CC(C)(C)c1cccc(Cl)c1O
inactive: dose: 25.0 mg/kg/injection, schedule: Q01DX009 (ip), vehicle: saline with Tween-80 102 % of control | [7] 93 % of control | [8] 96 % of control and 98 % of control

COc1ccc(C)cc1NC(=O)NNS(=O)(=O)c1ccc(C)cc1
inactive: [7] 93 % of control | [8] 93 % of control | dose: 200.0 mg/kg/injection, schedule: Q01DX009 (ip), vehicle: saline with Tween-80 93 % of control

c1ccc2c(c1)cc1ccc3cc4ccccc4c4ccc2c1c34
inactive: dose: 50.0 mg/kg/injection, schedule: Q01DX009 (ip), vehicle: acetone 110 % of control | dose: 100.0 mg/kg/injection, schedule: Q01DX001 (ip), vehicle: carboxymethylcellulose (CMC) 100 % of control | dose: 100.0 mg/kg/injection, schedule: Q01DX009 (ip), vehicle: acetone 105 % of control | dose: 200.0 mg/kg/injection, schedule: Q01DX001 (ip), vehicle: carboxymethylcellulose (CMC) 100 % of control | dose: 200.0 mg/kg/injection, schedule: Q01DX009 (ip), vehicle: acetone 107 % of control | dose: 400.0 mg/kg/injection, schedule: Q01DX001 (ip), vehicle: carboxymethylcellulose (CMC) 100 % of control

CCCCCC(CN(C)C)C(O)/C=C\c1ccccc1 (centres undefined)
inactive: dose: 12.5 mg/kg/injection, schedule: Q01DX009 (sc), vehicle: steriod suspending solution 97 % of control | dose: 12.5 mg/kg/injection, schedule: Q04DX003 (ip), vehicle: other 119 % of control | dose: 25.0 mg/kg/injection, schedule: Q01DX009 (sc), vehicle: steriod suspending solution 98 % of control | dose: 25.0 mg/kg/injection, schedule: Q04DX003 (ip), vehicle: other 106 % of control | dose: 50.0 mg/kg/injection, schedule: Q01DX009 (sc), vehicle: steriod suspending solution 97 % of control | dose: 50.0 mg/kg/injection, schedule: Q04DX003 (ip), vehicle: other 103 % of control

CCC(C)NC(=O)/C=C\C(=O)O (centres undefined)
inactive: dose: 100.0 mg/kg/injection, schedule: Q04DX002 (ip), vehicle: saline with Tween-80 95 % of control | dose: 200.0 mg/kg/injection, schedule: Q04DX002 (ip), vehicle: saline with Tween-80 92 % of control | dose: 400.0 mg/kg/injection, schedule: Q04DX002 (ip), vehicle: saline with Tween-80 100 % of control

N#CC1=C(C#N)C(=O)C(Cl)=C(Cl)C1=O
inactive: [9] 98 % of control | dose: 12.5 mg/kg/injection, schedule: Q01DX009 (ip), vehicle: saline 102 % of control | dose: 12.5 mg/kg/injection, schedule: Q04DX003 (ip), vehicle: saline sonified 104 % of control | dose: 25.0 mg/kg/injection, schedule: Q04DX003 (ip), vehicle: saline sonified 93 % of control

C=CCc1c[nH]c(=O)[nH]c1=O
inactive: dose: 50.0 mg/kg/injection, schedule: Q04DX003 (ip), vehicle: Klucel (hydroxypropylcellulose) (HPC) 100 % of control | [5] 108 % of control and 91 % of control | [6] 97 % of control and 100 % of control | dose: 400.0 mg/kg/injection, schedule: Q04DX003 (ip), vehicle: Klucel (hydroxypropylcellulose) (HPC) 90 % of control

CN(C)C(=O)c1ccccc1Cl
inactive: dose: 100.0 mg/kg/injection, schedule: Q04DX003 (ip), vehicle: acetone 92 % of control | dose: 200.0 mg/kg/injection, schedule: Q04DX003 (ip), vehicle: acetone 94 % of control | dose: 400.0 mg/kg/injection, schedule: Q04DX003 (ip), vehicle: acetone 105 % of control

S=c1[nH]c2cc(Cl)ccc2s1
inactive: dose: 100.0 mg/kg/injection, schedule: Q04DX002 (ip), vehicle: Klucel (hydroxypropylcellulose) (HPC) 93 % of control | dose: 200.0 mg/kg/injection, schedule: Q04DX002 (ip), vehicle: Klucel (hydroxypropylcellulose) (HPC) 96 % of control | dose: 400.0 mg/kg/injection, schedule: Q04DX002 (ip), vehicle: Klucel (hydroxypropylcellulose) (HPC) 86 % of control

CCCCNc1ccc([N+](=O)[O-])cc1[N+](=O)[O-]
inactive: dose: 50.0 mg/kg/injection, schedule: Q01DX009 (ip), vehicle: other 104 % of control | dose: 100.0 mg/kg/injection, schedule: Q01DX009 (ip), vehicle: other 93 % of control | dose: 100.0 mg/kg/injection, schedule: Q04DX003 (ip), vehicle: other 104 % of control | dose: 200.0 mg/kg/injection, schedule: Q01DX009 (ip), vehicle: other 104 % of control | dose: 200.0 mg/kg/injection, schedule: Q04DX003 (ip), vehicle: other 96 % of control

OCNC(=S)c1c(Cl)cccc1Cl
inactive: [2] 100 % of control | [3] 102 % of control | [4] 102 % of control

CN(N=O)C(=O)Nc1ccc(F)cc1
inactive: dose: 6.25 mg/kg/injection, schedule: Q01DX Z (ip), vehicle: carboxymethylcellulose (CMC) 110 % of control | dose: 12.5 mg/kg/injection, schedule: Q01DX Z (ip), vehicle: carboxymethylcellulose (CMC) 103 % of control | dose: 25.0 mg/kg/injection, schedule: Q01DX Z (ip), vehicle: carboxymethylcellulose (CMC) 111 % of control | [1] 120 % of control

CN(C)P(Cl)(Cc1ccccc1)(c1ccccc1)c1ccccc1
inactive: dose: 3.12 mg/kg/injection, schedule: Q01DX009 (ip), vehicle: saline 106 % of control | [9] 105 % of control | dose: 12.5 mg/kg/injection, schedule: Q04DX003 (ip), vehicle: saline 106 % of control
